Test results published in paper PMC5271370, “A High-Content Assay Enables the Automated Screening and Identification of Small Molecules with Specific ALDH1A1-Inhibitory Activity” (PLoS ONE, 2017).
Where two headings read alike, the source gives them in different places.

Assays:
[1] = system: breast cancer cells that express ALDH1A3; parameters: method as in PMID 27592281; details: flow cytometry, at concentrations >10 μM; cited from earlier work
[2] = target: T1, Human ALDH3A1 (Homo sapiens, UniProt P30838); assay: 1,536-well enzymatic assay (NADPH fluorescence), ALDH3A1; assay type: biochemical
T1 construct: made in house
T1 sequence (P30838 1-453): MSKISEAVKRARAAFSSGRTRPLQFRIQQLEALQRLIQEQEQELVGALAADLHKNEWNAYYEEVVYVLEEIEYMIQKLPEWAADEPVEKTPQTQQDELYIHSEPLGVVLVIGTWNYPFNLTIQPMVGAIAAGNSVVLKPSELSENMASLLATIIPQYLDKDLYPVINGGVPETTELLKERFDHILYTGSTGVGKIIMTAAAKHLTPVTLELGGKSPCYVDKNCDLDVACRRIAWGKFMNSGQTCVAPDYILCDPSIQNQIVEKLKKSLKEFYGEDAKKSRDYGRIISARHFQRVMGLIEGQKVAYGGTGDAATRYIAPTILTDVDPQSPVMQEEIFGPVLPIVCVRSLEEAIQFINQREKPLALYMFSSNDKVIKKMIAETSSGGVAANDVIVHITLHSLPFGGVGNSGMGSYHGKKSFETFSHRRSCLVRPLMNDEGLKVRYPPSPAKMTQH
Source text: To validate our optimized assay, we assembled a set of 20 previously reported ALDH inhibitors, with varying degrees of target specificity (Table 1 and S4 Fig). […] Briefly, the assay measures the dehydrogenase activity of recombinant human ALDH1A1, ALDH1A2, ALDH1A3, ALDH2 or ALDH3A1 using NAD(P)^+ and either propionaldehyde or benzaldehyde as substrates. An orthogonal resorufin-based assay format was also run with isolated ALDH1A1 to rule out potential false positives due to intrinsic compound fluorescence.
Human ALDH1A1 and ALDH3A1 were expressed and purified as described elsewhere. Human ALDH2 was purchased from Abcam (ab87415). Human ALDH1A2 and ALDH1A3 were purchased from MyBioSource (MBS1005929; San Diego, CA) and ThermoFisher (11636H07E50), respectively. The inhibitory activity of compounds against ALDHs was measured according to protocols described previously. Briefly, 3 μL of enzyme (final concentrations of 20 nM for ALDH1A1, 50 nM for ALDH1A2, 50 nM for ALDH1A3, 75 nM for ALDH2 and 5 nM for ALDH3A1) in assay buffer (100 mM HEPES pH 7.5 with 0.01% Tween 20) were dispensed into a 1,536-well solid-bottom black plate (Greiner Bio One, Monroe, NC). […] Samples were incubated (room temperature, protected from light) for 15 minutes followed by a 1 μL substrate addition of NAD^+ and Propionaldehyde (final concentrations of 1 mM and 80 μM, respectively) for ALDH1A1, 1A2, 1A3, and ALDH2 or NADP^+ and benzaldehyde (final concentrations of 1 mM and 200 μM, respectively) for ALDH3A1. Plates were centrifuged at 1,000 rpm for 15 seconds, then read in kinetic mode on a ViewLux High-throughput CCD imager (PerkinElmer, Waltham, MA) equipped with standard UV fluorescence optics (340 nm excitation, 450 nm emission) for 5 (ALDH1A1, ALDH1A2, ALDH2, ALDH3A1) or 30 (ALDH1A3) minutes. The change in fluorescence intensity over the 5- or 30-minute reaction period was normalized against no-inhibitor and no-enzyme controls and the resulting percent inhibition data were fitted to a 4-parameter Hill equation. Bay-11 7085 was used as intraplate control. To account for artifacts due to intrinsic compound fluorescence in the above spectrum, compounds were also tested in an orthogonal resorufin assay format with optics of excitation 525 nm/emission 598 nm as described before. The same parameters as the NADH assay were used for the resorufin assay, with the addition of (final) 133 μg/mL diaphorase and 37 μM resazurin to the assay solution. Same controls were used in both formats.

[3] = system: ALDH1A1; details: reported ALDH target 1A1; read-out: Reported Biochemical IC50, ALDH1A1; cited from earlier work
[4] = system: ALDH2; details: reported ALDH target 2; read-out: Reported Biochemical IC50, ALDH2; cited from earlier work
[5] = validation set, 5 nM enzyme, NADP+ and benzaldehyde, read-out: Biochemical IC50 ALDH3A1

IC50 [2, 5] [nM]	Molecule	IC50 [3] [nM]	IC50 [4] [nM]	further results
–	CC(C)=CCCC(C)=CC=O (mixture of isomers) [Citral]	–	–	Reduction of ALDEFLUOR fluorescence [1]: significantly reduced ALDEFLUOR fluorescence
5390	CCOc1ccc(NCC(=O)Nc2ccc(Cl)cc2C)cc1 [CID 725345]	3500	–	–
21500	COc1cccc2cc(C(=O)CC3(O)C(=O)N(Cc4ccccc4)c4ccccc43)c(=O)oc12 (stereo not shown) [CID 2929292]	90	–	–
–	O=c1c(-c2ccc(O)cc2)coc2cc(O[C@@H]3O[C@H](CO)[C@@H](O)[C@H](O)[C@H]3O)ccc12 [Daidzin]	–	290	–
1910	CCN(CC)C(=S)SSC(=S)N(CC)CC [Disulfiram]	150	–	–
–	Cc1cc2c(C(C)C)c(O)c(O)c(C=O)c2c(O)c1-c1c(C)cc2c(C(C)C)c(O)c(O)c(C=O)c2c1O [Gossypol]	75000	–	IC50 [2]: 27000 nM
–	CC(C)N(C(=O)CCl)c1ccccc1 [Propachlor]	–	–	IC50 ([2]; hits of dual cell-based screen (Table 2), read-out: Biochemical IC50 ALDH3A1): 50100 nM
2410	O=C1Nc2ccccc2C1=O [indoline-2,3-dione]	20	–	–
17000	CVT-10216	1300	29	–

Molecule	IC50 [2, 5] [nM]	IC50 [3] [nM]	IC50 [4] [nM]	further results
COc1ccc(C(=O)CCN(C)C)cc1F [Aldi-2]	40	2500	6400	–
CC(C)(C)c1ccc(S(=O)(=O)/C=C/C#N)cc1 [Bay-11-7085]	540	74	34	–
CCN(CC)c1ccc(C=O)cc1 [DEAB, 4-N,N-diethylaminobenzaldehyde]	6050	–	160	Reduction of ALDEFLUOR fluorescence [1]: significantly reduced ALDEFLUOR fluorescence
